Laboratory results reported in ChEMBL document CHEMBL1133781, “High-pressure synthesis of enantiomerically pure C-6 substituted pyrazol” (Bioorg Med Chem Lett, 2001).

Experiments:
Adenosine receptor A1 = molecular target: T1, Adenosine receptor A1 (Rattus norvegicus, UniProt P25099); test: Displacement of [3H]N6-PIA (Kd, 1 nM) binding from Adenosine A1 receptor in whole rat brain membranes; type: cell membranes
T1 sequence (P25099 whole entry): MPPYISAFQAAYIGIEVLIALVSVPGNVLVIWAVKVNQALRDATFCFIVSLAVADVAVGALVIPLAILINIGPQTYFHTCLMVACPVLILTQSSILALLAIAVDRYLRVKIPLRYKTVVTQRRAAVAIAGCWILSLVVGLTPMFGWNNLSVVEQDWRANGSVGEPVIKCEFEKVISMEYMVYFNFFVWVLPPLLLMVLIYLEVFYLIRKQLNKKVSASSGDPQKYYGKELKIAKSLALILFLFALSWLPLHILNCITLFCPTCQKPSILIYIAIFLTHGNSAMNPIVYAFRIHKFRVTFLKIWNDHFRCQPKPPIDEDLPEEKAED

Adenosine receptor A2a = Adenosine receptor A2a (Rattus norvegicus, UniProt P30543); test: Displacement of [3H]CGS-21680 (Kd, 14.9 nM) from A2A receptor in rat striatal membranes; type: cell membranes, Membrane
Chain of Adenosine receptor A2a (P30543 whole entry): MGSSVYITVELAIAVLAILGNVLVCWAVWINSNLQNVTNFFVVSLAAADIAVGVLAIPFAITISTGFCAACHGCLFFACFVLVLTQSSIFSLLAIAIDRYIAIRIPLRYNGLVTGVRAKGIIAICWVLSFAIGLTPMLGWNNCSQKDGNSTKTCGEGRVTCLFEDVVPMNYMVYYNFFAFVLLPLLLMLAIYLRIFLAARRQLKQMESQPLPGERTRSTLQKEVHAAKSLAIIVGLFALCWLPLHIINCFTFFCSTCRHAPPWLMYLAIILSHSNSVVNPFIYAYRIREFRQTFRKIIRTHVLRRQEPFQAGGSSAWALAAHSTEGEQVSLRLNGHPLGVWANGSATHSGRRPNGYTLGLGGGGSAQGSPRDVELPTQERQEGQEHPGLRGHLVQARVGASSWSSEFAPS

Ki (Adenosine receptor A1) [nM]	Ki (Adenosine receptor A2a) [nM]	Compound
49.1	648	C[C@H](Nc1nc(N)c2cnn(-c3ccccc3)c2n1)C(N)=O
84	930	CC(Nc1nc(N)c2cnn(-c3ccccc3)c2n1)C(N)=O (racemic)
486	2120	C[C@@H](Nc1nc(N)c2cnn(-c3ccccc3)c2n1)C(N)=O
